Assay results as given in US8377706B2, “Olfactory receptor-functionalized transistors for highly selective bioelectronic nose and biosensor using the same” (Seoul National University Industry Foundation, priority 2008, dated 2013).

Columns and labels:
[1] = target: T1, human olfactory receptor 2AG1 (hOR2AG1) protein (Homo sapiens, UniProt Q9H205); assay: Conductance (source-drain current) measurement of biosensor using hOR2AG1-functionalized swCNT transistors after introduction of odorants; format: biochemical; details: for Detection Limit: lipid membranes with hOR2AG1 on swCNT-FET, odorant solution in PBS, bias 100 mV
T1 construct: made in house; host or cells: Escherichia coli
T1 sequence (Q9H205 1-316): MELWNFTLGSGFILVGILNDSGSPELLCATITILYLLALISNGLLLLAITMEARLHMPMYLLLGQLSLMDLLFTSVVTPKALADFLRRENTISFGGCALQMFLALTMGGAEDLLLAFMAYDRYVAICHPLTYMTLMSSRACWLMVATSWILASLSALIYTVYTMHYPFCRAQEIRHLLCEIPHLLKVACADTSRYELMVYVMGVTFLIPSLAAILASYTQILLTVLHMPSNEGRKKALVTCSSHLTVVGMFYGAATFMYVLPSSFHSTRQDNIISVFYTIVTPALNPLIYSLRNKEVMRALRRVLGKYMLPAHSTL
Description: 1 μl of the hOR2AG1-containing fraction collected in Example 1 was evenly spread to cover the swCNTs and electrodes, and vacuum-dried for 4 hours to fix the hOR2AG1, thereby manufacturing human olfactory receptor-functionalized carbon nanotube transistors.
(§1) To measure the effects of odorants on the biosensor using human olfactory receptor functionalized transistors, drops of 9 μl phosphate buffered saline (PBS) were placed onto the human olfactory receptor functionalized transistors manufactured in […]. Subsequently, the source-drain current was monitored after the introduction of a solution containing specific odorants. A bias voltage of 100 mV was maintained at all time during the electrical measurement (See FIG. 8).
A 1 M stock solution of the odorants was prepared, and additional dilutions (from 10^−1 M to 10^−13 M) were obtained by serial 1:10 dilutions in PBS.
Butyl butyrate, phenyl valerate, and propyl butyrate were introduced at various concentrations on the biosensors using hOR2AG1 functionalized transistors manufactured in Example 2 of the present invention, each of the conductance modulations was measured, and the results were recorded in FIGS. 14 to 16, respectively. The arrows illustrated in FIGS. 14 to 16 show time points of introduction of each odorant.

[2] = Control: conductance measurement on bare carbon nanotube transistors; details: bare CNT
Description: as §1
(§2) The results are shown in FIGS. 12 and 13, respectively. As shown respectively in FIGS. 12 and 13, each of the conductance modulations was observed on the biosensors using modified carbon nanotube transistors with lipid membranes in which hOR2AG1 was not included and bare carbon nanotube transistors, after the introduction of amyl butyrate at 100 mM.

hOR2AG1 = target: T2, hOR2AG1 (Homo sapiens, UniProt Q9H205); details: known; cited from earlier work
T2 sequence (Q9H205 1-316): T1 sequence (Q9H205 1-316)

[3] = Control: conductance measurement on carbon nanotube transistors with lipid membranes in which hOR2AG1 was not included; details: lipid membranes without olfactory receptors
Description: as §1, §2

Row | SMILES | Detection Limit [1] [mM] | Effect on biosensor conductance ([1]; odorant at 100 μM (FIG. 11)) | Detection Limit [2] [mM] | Activation of hOR2AG1 (hOR2AG1) | Detection Limit [3] [mM] | Source-drain current after introduction of odorant ([1]; 100 fM, 1 pM, 10 pM and 100 pM (FIG. 10)) | Effect on biosensor conductance ([1]; odorant at 1 pM (FIG. 11))
1 | CCCOC(=O)CCC [Propyl butyrate (PB), propyl butyrate] | 10 | did not affect the biosensor |  |  |  |  | 
2 | CCCCOC(=O)CCC [Butyl butyrate (BB), butyl butyrate] | 10 | did not affect the biosensor |  |  |  |  | 
3 | CCCCCOC(=O)CCC [Amyl butyrate (AB), amyl butyrate] | 1e-10 |  | 100 | activated | 100 | sharply decreased | sharply decreased
4 | CCCCCOC(=O)CCCC [Pentyl valerate (PV), pentyl valerate] | 10 | did not affect the biosensor |  |  |  |  | 
